Test results published in US20260041677A1, “COMPOSITIONS AND METHODS FOR TREATING ADENOID CYSTIC CARCINOMA” (ELEVAR THERAPEUTICS, INC., priority 2022, published 2026).

Tested on: recurrent or metastatic (R/M) adenoid cystic carcinoma (ACC)
Test: Phase 2 study of rivoceranib in R/M ACC: response, PFS, TTP per CHOI response criteria by BIRC
Assay type: in vivo, human
Details: for Complete Response / DoR 25th percentile / DoR 75th percentile / DoR Median / Partial Response / Progressive Disease / Stable Disease / DCR (disease control rate): BIRC
Excerpt: Objectives: Primary objectives were to evaluate safety & tolerability, efficacy by objective response rate (ORR), best overall response (BOR), time to response, duration of response, disease control rate, and duration of disease control. Secondary objectives were to evaluate efficacy as measured by overall survival, progression-free survival and event-free survival. The primary efficacy endpoint was the ORR, defined as the proportion of patients who achieved confirmed complete response (CR) or partial response (PR) per Response Evaluation Criteria in Solid Tumors (RECIST) Version 1.1 (V1.1). The secondary efficacy endpoints were duration of response (DoR) assessed by the investigator and a blinded independent review committee (BIRC), progression-free survival (PFS) assessed at 6 months, 12 months, and 2 years by investigator and BIRC, Time to Progression (TTP) assessed by investigator and BIRC, and overall survival (OS) assessed at 1 and 2 years. Exploratory efficacy endpoints include ORR per CHOI response criteria (based on the journal article, Choi et al., Correlation of computed tomography and positron emission tomography in patients with metastatic gastrointestinal stromal tumor treated at a single institution with imatinib mesylate: proposal of new computed tomography response criteria. J Clin Oncol. 2007; 25(13): 1753-1759) by a blinded independent review […] (BIRC) and disease control rate (DCR) per RECIST V1.1 by Investigator and BIRC. Except for CHOI response criteria, all response endpoints were assessed per RECIST V1.1 by Investigator and BIRC.
Endpoint of Response per CHOI response Criteria: CHOI response criteria assesses response based on change in tumor density as well as change in tumor size and have been most often used to assess response to treatment with tyrosine kinase inhibitors such as imatinib in gastrointestinal stromal tumors (GIST) where RECIST criteria underestimate response. Evaluation of response per CHOI response criteria by BIRC was added to the protocol for exploratory analysis because Investigators observed decreases in tumor density on treatment with rivoceranib without changes in tumor lesion diameters. Changes in tumor density had not been reported with other treatments investigated for R/M ACC.
Objective response rate (ORR), duration of response (DOR) and disease control rate (DCR) in the efficacy evaluable population per CHOI response criteria (using the same data set as used for analyses per RECIST V1.1): Assessment of response per CHOI response criteria required a subject have contrast-enhanced CT scan as the imaging modality for assessment of tumor density at baseline and post-baseline time points. Therefore, fewer subjects were efficacy evaluable per CHOI response criteria (N=60) than per RECIST V1.1 criteria (N=73). […] This is >4-fold higher than the ORR of 9.6% per RECIST V1.1 reported by BIRC. […] Median DOR per CHOI response criteria was 14.8 months, which was two-fold higher than that reported per RECIST V1.1-7.2 months reported by BIRC.

[1] = CHOI criteria, Total N = 60, 700 mg QD start
[2] = CHOI criteria, VEGFRi-naïve N = 48, 700 mg QD start
[3] = CHOI criteria, VEGFRi-treated N = 12, 700 mg QD start
[4] = CHOI criteria, efficacy evaluable population, 700 mg QD start

Compound: N#CC1(c2ccc(NC(=O)c3cccnc3NCc3ccncc3)cc2)CCCC1 [Rivoceranib, N-[4-(1-cyanocyclopentyl)phenyl]-2-{[(pyridin-4-yl)methyl]amino}pyridine-3-carboxamide]
- ORR per CHOI criteria relative to ORR per RECIST V1.1 by BIRC (51.7% vs 9.6%): > 4 fold
- Complete Response [1]: 0%
- DoR 25th percentile [1]: 7.2 months
- DoR 75th percentile [1]: 20.2 months
- DoR Median [1]: 14.8 months
- Partial Response [1]: (51.7) %
- Progressive Disease [1]: (6.7) %
- Stable Disease [1]: (41.7) %
- Complete Response [2]: 0%
- DCR (disease control rate) [2]: (60.4) %
- DoR 25th percentile [2]: 7.2 months
- DoR 75th percentile [2]: 20.2 months
- DoR Median [2]: 14.8 months
- Partial Response [2]: (52.1) %
- Progressive Disease [2]: (6.3) %
- Stable Disease [2]: (41.7) %
- Complete Response [3]: 0%
- DCR (disease control rate) [3]: (66.7) %
- DoR 25th percentile [3]: 12.2 months
- DoR Median [3]: 12.2 months
- Partial Response [3]: (50.0) %
- Progressive Disease [3]: (8.3) %
- Stable Disease [3]: (41.7) %
- Median TTP [4]: 14.4 months
- estimated PFS rate at 6 months [4]: 80.4%
- estimated PFS rate at 9 months [4]: 62.6%
- estimated PFS rate at 12 months [4]: 53.8%
- estimated TTP rate at 6 months [4]: 82%
- estimated TTP rate at 9 months [4]: 67.7%
- estimated TTP rate at 12 months [4]: 58.3%
- median PFS [4]: 13.8 months
